This is an account of results in patent publication EP4678638A1, “NEW E3 UBIQUITIN LIGASE LIGAND, PROTEIN DEGRADATION AGENT AND USE THEREOF” (priority 2023, dated 2024).

The target in the test is T1, human Cereblon WT GST-tagged protein (Homo sapiens, UniProt Q96SW2).
T1 construct: purchased CISBIO 64BDCRBNPEH
Kind of test: CRBN binding, HTRF (CEREBLON BINDING kit). As to conditions: HTRF; for inhibition at 0.5 µM: read-out: Inhibition rate (%) at 0.5µM; for inhibition at 2 µM: read-out: Inhibition rate (%) at 2 µM. As for the experimental part: The CEREBLON BINDING kits (specification: 10,000 tests; product number: Catalog # 64BDCRBNPEH; CISBIO company) was used to determine the CRBN binding ability of the compounds to be tested through a HTRF method (homogeneous time-resolved fluorescence). The specific methods are as follows: • 1. […] Then, 2.5 µL of human Cereblon WT GST-tagged protein solution was added to each well. Finally, 5 µL of the thoroughly mixed Thalidomide-Re reagent and GST Eu antibody working solution were added to each of the aforementioned wells. […] The blank control wells were sequentially added with 2.5 µL of diluent #9 (1X) solution, 2.5 µL of binding buffer, and 5 µL of thoroughly mixed Thalidomide-Re reagent and GST Eu antibody working solution. • 4. After sealing and incubating the solutions in the aforementioned wells at room temperature for 3 hours, the […] at emission wavelengths of 620 nm and 665 nm were detected by the HTRF method using a Spark microplate reader (V3.1 SP1).

[1] abbreviates: Table II-2, CRBN binding screening, at 0.5µM.
Setting [2] is: Table II-2, CRBN binding screening, at 2 µM.

SMILES strings stand for the structures.

T1 sequence (Q96SW2 whole entry): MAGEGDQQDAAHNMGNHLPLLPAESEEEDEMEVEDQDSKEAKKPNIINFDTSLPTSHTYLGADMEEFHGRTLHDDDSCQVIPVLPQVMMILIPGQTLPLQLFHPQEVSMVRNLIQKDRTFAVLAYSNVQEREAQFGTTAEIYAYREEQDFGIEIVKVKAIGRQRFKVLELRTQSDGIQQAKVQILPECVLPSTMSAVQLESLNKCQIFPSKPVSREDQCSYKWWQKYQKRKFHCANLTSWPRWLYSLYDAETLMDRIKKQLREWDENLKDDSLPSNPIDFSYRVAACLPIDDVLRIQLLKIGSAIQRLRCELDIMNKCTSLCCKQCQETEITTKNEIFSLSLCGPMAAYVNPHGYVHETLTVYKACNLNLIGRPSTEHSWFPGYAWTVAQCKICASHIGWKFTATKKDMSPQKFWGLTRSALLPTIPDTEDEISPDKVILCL

Turning to `CC1(C)CCC(c2ccc(Cl)cc2)=C(CN2CCN(c3ccc(C(=O)NS(=O)(=O)c4ccc(N[C@H](CCN5CC6CCC5CN6Cc5ccc(C6CCC(=O)NC6=O)cc5)CSc5ccccc5)c(S(=O)(=O)C(F)(F)F)c4)cc3)CC2)C1` (stereo partly drawn) [GT-07878, 4-(4-((4'-chloro-4,4-dimethyl-3,4,5,6-tetrahydro-[1,1'-biphenyl]-2-yl)methyl)piperazin-1-yl)-N-((4-(((2R)-4-(5-(4-(2,6-dioxopiperidin-3-yl)benzyl)-2,5-diazabicyclo[2.2.2]octan-2-yl)-1-(phenylthio)butan-2-yl)amino)-3-((trifluoromethyl)sulfonyl)phenyl)sulfonyl)benzamide], the “Inhibition rate (%) at 0.5µM” value under setting [1] was “a3 (30% < a3 ≤ 40%)”. Also, under setting [2], the “Inhibition rate (%) at 2 µM” value is listed as “a5 (53% < a5 ≤ 60%)”.

For the compound `CN(Cc1cc(N2CCC(=O)NC2=O)cnc1F)C1CCN(c2ccc(-c3cc(F)c4c(c3)C(=O)N(C(C(=O)Nc3nccs3)c3ncn5c3CCC5)C4)cc2)CC1` (stereo not drawn) [GT-07823, 2-(6,7-dihydro-5H-pyrrolo[1,2-c]imidazol-1-yl)-2-(6-(4-(4-(((5-(2,4-dioxotetrahydropyrimidin-1(2H)-yl)-2-fluoropyridin-3-yl)methyl)(methyl)amino)piperidin-1-yl)phenyl)-4-fluoro-1-oxoisoindolin-2-yl)-N-(thiazol-2-yl)acetamide], the inhibition at 0.5 µM under setting [1] was in the range of 53 to 60%. In addition, under setting [2], the inhibition at 2 µM was in the range of 80 to 100%.

Regarding `COc1cc2nn(C3CCN(Cc4cc(N5CCC(=O)NC5=O)cnc4F)CC3)cc2cc1NC(=O)c1cccc(C(F)(F)F)n1` [GT-07799, N-(2-(1-((5-(2,4-dioxotetrahydropyrimidin-1(2H)-yl)-2-fluoropyridin-3-yl)methyl)piperidin-4-yl)-6-methoxy-2H-indazol-5-yl)-6-(trifluoromethyl)picolinamide], the inhibition at 0.5 µM under setting [1] fell in the range of 20 to 30%. The inhibition at 2 µM under setting [2] is 60 to 80%.

`CC(C)(O)c1cc2nc(C3CCN(Cc4cncc(C5CCC(=O)NC5=O)c4)CC3)oc2cc1NC(=O)c1cccc(C(F)(F)F)n1` (stereo not drawn) [GT-07630, N-(2-(1-((5-(2,6-dioxopiperidin-3-yl)pyridin-3-yl)methyl)piperidin-4-yl)-5-(2-hydroxypropan-2-yl)benzo[d]oxazol-6-yl)-6-(trifluoromethyl)picolinamide]: under setting [1], the inhibition at 0.5 µM lay in the range of 20 to 30%. In addition, under setting [2], the inhibition at 2 µM lay in the range of 60 to 80%.

For `Cc1ccc(C(=O)Nc2ccc(N3CCC(N(C)Cc4ccc(C5CCC(=O)NC5=O)cc4)CC3)c(C(F)(F)F)c2)cc1C#Cc1cnc2cccnn12` (stereo not drawn) [GT-04106, N-(4-(4-((4-(2,6-dioxopiperidin-3-yl)benzyl)(methyl)amino)piperidin-1-yl)-3-(trifluoromethyl)phenyl)-3-(imidazo[1,2-b]pyridazin-3-ylethynyl)-4-methylbenzamide], under setting [1], the inhibition at 0.5 µM is 40 to 53%. Also, under setting [2], the inhibition at 2 µM was 60 to 80%.

Take `O=C1CCN(c2cnc(F)c(CN3CCN(c4ccc(-c5cc(F)c6c(c5)C(=O)N(C(CNc5nccs5)c5ncn7c5CCC7)C6)cc4)CC3)c2)C(=O)N1` (stereo not drawn) [GT-07760, 1-(5-((4-(4-(2-(1-(6,7-dihydro-5H-pyrrolo[1,2-c]imidazol-1-yl)-2-(thiazol-2-ylamino)ethyl)-7-fluoro-3-oxoisoindolin-5-yl)phenyl)piperazin-1-yl)methyl)-6-fluoropyridin-3-yl)dihydropyrimidine-2,4(1H,3H)-dione]: under setting [1], the inhibition at 0.5 µM lay within 40 to 53%. The inhibition at 2 µM under setting [2] is 60 to 80%.

Take `COc1cc2nn(C3CCN(Cc4cc(C5CCC(=O)NC5=O)cnc4F)CC3)cc2cc1NC(=O)c1cccc(C(F)(F)F)c1` (stereo not drawn) [GT-07547, N-(2-(1-((5-(2,6-dioxopiperidin-3-yl)-2-fluoropyridin-3-yl)methyl)piperidin-4-yl)-6-methoxy-2H-indazol-5-yl)-3-(trifluoromethyl)benzamide]: the inhibition at 0.5 µM under setting [1] lay in the range of 40 to 53%. In addition, the inhibition at 2 µM under setting [2] fell in the range of 80 to 100%.

For `CC(C)(O)c1cc2nn(C3CCN(Cc4cc(C5CCC(=O)NC5=O)cnc4F)CC3)cc2cc1NC(=O)c1cccc(C(F)(F)F)n1` (stereo not drawn) [GT-07793, N-(2-(1-((5-(2,6-dioxopiperidin-3-yl)-2-fluoropyridin-3-yl)methyl)piperidin-4-yl)-6-(2-hydroxypropan-2-yl)-2H-indazol-5-yl)-6-(trifluoromethyl)picolinamide], the inhibition at 0.5 µM under setting [1] was 60 to 80%. For the same compound, under setting [2], the inhibition at 2 µM was 80 to 100%.

Consider `O=C1CCC(c2cncc(CN3CCC(n4cc(NC(=O)c5cnn6ccc(N7CCOCC7)nc56)c(C(F)F)n4)CC3)c2)C(=O)N1` (stereo not drawn) [GT-07770, N-(3-(difluoromethyl)-1-(1-((5-(2,6-dioxopiperidin-3-yl)pyridin-3-yl)methyl)piperidin-4-yl)-1H-pyrazol-4-yl)-5-morpholinopyrazolo[1,5-a]pyrimidine-3-carboxamide], for which the inhibition at 0.5 µM under setting [1] was 30 to 40%. In addition, under setting [2], the inhibition at 2 µM was 80 to 100%.

As to `O=C1CCN(c2cnc(CN3C[C@H]4C[C@@H]3CN4c3ccc(-c4cc(F)c5c(c4)C(=O)N(C(C(=O)Nc4nccs4)c4ncn6c4CCC6)C5)cc3)cn2)C(=O)N1` (stereo partly drawn) [GT-07826, 2-(6,7-dihydro-5H-pyrrolo[1,2-c]imidazol-1-yl)-2-(6-(4-((1R,4R)-5-((5-(2,4-dioxotetrahydropyrimidin-1(2H)-yl)pyrazin-2-yl)methyl)-2,5-diazabicyclo[2.2.1]heptan-2-yl)phenyl)-4-fluoro-1-oxoisoindolin-2-yl)-N-(thiazol-2-yl)acetamide], the inhibition at 0.5 µM under setting [1] was 10 to 20%. Moreover, under setting [2], the inhibition at 2 µM was in the range of 53 to 60%.

As for `CC(=O)c1c(C)c2cnc(Nc3ccc(N4CCN(Cc5cncc(N6CCC(=O)NC6=O)c5)CC4)cn3)nc2n(C2CCCC2)c1=O` [GT-07482, 1-(5-((4-(6-((6-acetyl-8-cyclopentyl-5-methyl-7-oxo-7,8-dihydropyrido[2,3-d]pyrimidin-2-yl)amino)pyridin-3-yl)piperazin-1-yl)methyl)pyridin-3-yl)dihydropyrimidine-2,4(1H,3H)-dione], under setting [1], the inhibition at 0.5 µM was in the range of 20 to 30%. Besides, the inhibition at 2 µM under setting [2] lay in the range of 80 to 100%.

As to `CC(C)Nc1cc(-n2ccc3cc(C#N)cnc32)ncc1C(=O)NC1CCN(Cc2cc(N3CCC(=O)NC3=O)cnc2F)CC1` [GT-07779, 6-(5-cyano-1H-pyrrolo[2,3-b]pyridin-1-yl)-N-(1-((5-(2,4-dioxotetrahydropyrimidin-1(2H)-yl)-2-fluoropyridin-3-yl)methyl)piperidin-4-yl)-4-(isopropylamino)nicotinamide], the inhibition at 0.5 µM under setting [1] lay in the range of 20 to 30%. Besides, under setting [2], the inhibition at 2 µM fell in the range of 60 to 80%.

As for `CC(C)(O)c1cc2nn(C3CCN(Cc4cncc(N5CCC(=O)NC5=O)c4)CC3)cc2cc1NC(=O)c1cccc(C(F)(F)F)n1` [GT-07540, N-(2-(1-((5-(2,4-dioxotetrahydropyrimidin-1(2H)-yl)pyridin-3-yl)methyl)piperidin-4-yl)-6-(2-hydroxypropan-2-yl)-2H-indazol-5-yl)-6-(trifluoromethyl)picolinamide], under setting [1], the inhibition at 0.5 µM fell in the range of 30 to 40%. Under setting [2], the inhibition at 2 µM fell in the range of 53 to 60%.

In turn, `O=C1CCN(c2cccc(CN3CCN(C4CCN(c5ccc([C@@H]6c7ccc(O)cc7CC[C@@H]6c6ccccc6)cc5)CC4)CC3)c2)C(=O)N1` [GT-04685, 1-(3-((4-(1-(4-((1R,2S)-6-hydroxy-2-phenyl-1,2,3,4-tetrahydronaphthalen-1-yl)phenyl)piperidin-4-yl)piperazin-1-yl)methyl)phenyl)dihydropyr imidine-2,4(1H,3H)-dione] returned an IC50 (Table II-1, CRBN binding) of 500 to 1000 nM.

Turning to `O=C1CCN(c2cnc(F)c(CN3C[C@H]4C[C@@H]3CN4c3ccc(-c4cc(F)c5c(c4)C(=O)N(C(C(=O)Nc4nccs4)c4ncn6c4CCC6)C5)cc3)c2)C(=O)N1` (stereo partly drawn) [GT-07825, 2-(6,7-dihydro-5H-pyrrolo[1,2-c]imidazol-1-yl)-2-(6-(4-((1R,4R)-5-((5-(2,4-dioxotetrahydropyrimidin-1(2H)-yl)-2-fluoropyridin-3-yl)methyl)-2,5-diazabicyclo[2.2.1]heptan-2-yl)phenyl)-4-fluoro-1-oxoisoindolin-2-yl)-N-(thiazol-2-yl)acetamide], under setting [1], the inhibition at 0.5 µM lay within 60 to 80%. Further, the inhibition at 2 µM under setting [2] fell in the range of 80 to 100%.

Consider `O=C1CCN(c2cncc(CN3CCC(n4cc(NC(=O)c5cnn6ccc(N7C[C@H]8C[C@@H]7CO8)nc56)c(C(F)F)n4)CC3)c2)C(=O)N1` [GT-07774, 5-((1R,4R)-2-oxa-5-azabicyclo[2.2.1]heptan-5-yl)-N-(3-(difluoromethyl)-1-(1-((5-(2,4-dioxotetrahydropyrimidin-1(2H)-yl)pyridin-3-yl)methyl)piperidin-4-yl)-1H-pyrazol-4-yl)pyrazolo[1,5-a]pyrimidine-3-carboxamide], for which the inhibition at 0.5 µM under setting [1] is 40 to 53%. In addition, under setting [2], the inhibition at 2 µM was in the range of 80 to 100%.

With `O=C1CCN(c2cncc(CN3CCC(n4cc(NC(=O)c5cnn6ccc(N7CCOCC7)nc56)c(C(F)F)n4)CC3)c2)C(=O)N1` [GT-07766, N-(3-(difluoromethyl)-1-(1-((5-(2,4-dioxotetrahydropyrimidin-1(2H)-yl)pyridin-3-yl)methyl)piperidin-4-yl)-1H-pyrazol-4-yl)-5-morpholinopyrazolo[1,5-a]pyrimidine-3-carboxamide], the inhibition at 0.5 µM under setting [1] lay within 30 to 40%. Also, under setting [2], the inhibition at 2 µM was 60 to 80%.
